Publication PMC10797613 (ACS Chemical Neuroscience, 2024)
Where “and” joins values, the source holds several entries; their conditions need not be identical. Identical values can stand only once. Like-named read-outs stand apart in the source and are kept apart here.

How the values were obtained:
H1 = H1 (Homo sapiens, UniProt P35367); experiment: biochemical; assay type: binding
5-HT2B receptor = 5-HT2B receptor (Homo sapiens, UniProt P41595); experiment: Gαq-mediated calcium flux assay; assay type: cell-based; details: 95% CI in brackets; * = potentially ambiguous
C57BL/6J mice [1] = experiment: mouse head twitch response; assay type: in vivo; details: for time of peak HTR effects / Emax(HTR events/30 min) / ED50(mg/kg s.c.) for HTR: mice; for time of peak HTR effects: post drug administration; for Emax(HTR events/30 min) / ED50(mg/kg s.c.) for HTR: s.c.; for Emax(HTR events/30 min): maximum effect; for ED50(mg/kg s.c.) for HTR: 30 min session, ascending phase of HTR curve; for HTR activity (in words): mouse, in vivo
5-HT2A receptor = 5-HT2A receptor (Homo sapiens, UniProt P28223); experiment: Gαq-mediated calcium flux assay; assay type: cell-based; details: read-out: Emax (% 5-HT) 5-HT2A calcium flux, 95% CI in brackets
C57BL/6J mice [2] = experiment: locomotor activity; assay type: in vivo, mouse; details: s.c., 30 min testing session
5-HT1B = 5-HT1B (Homo sapiens, UniProt P28222); experiment: GPCR Tango assay measuring β-arrestin recruitment; assay type: cell-based; details: up to 50 μM
5-HT2C receptor = biological target: T1, 5-HT2C receptor (Homo sapiens, UniProt P28335); experiment: Gαq-mediated calcium flux assay; assay type: cell-based
T1 sequence (P28335 33-458): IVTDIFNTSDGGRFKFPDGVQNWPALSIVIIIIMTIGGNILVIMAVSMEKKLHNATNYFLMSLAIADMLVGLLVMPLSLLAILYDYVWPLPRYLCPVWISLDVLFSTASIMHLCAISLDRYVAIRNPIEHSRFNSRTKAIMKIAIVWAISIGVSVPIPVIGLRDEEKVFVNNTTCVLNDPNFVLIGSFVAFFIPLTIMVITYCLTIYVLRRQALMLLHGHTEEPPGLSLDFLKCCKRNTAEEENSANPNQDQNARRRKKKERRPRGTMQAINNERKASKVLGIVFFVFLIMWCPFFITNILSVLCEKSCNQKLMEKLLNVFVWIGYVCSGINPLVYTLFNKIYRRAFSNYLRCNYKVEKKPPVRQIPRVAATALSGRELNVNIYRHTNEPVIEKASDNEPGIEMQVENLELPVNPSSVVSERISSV

C57BL/6J mice [3] = experiment: body temperature change from pre to post session in mice; assay type: in vivo, mouse; details: highest dose tested
5-HT7A = 5-HT7A (Homo sapiens, UniProt P34969); experiment: GPCR Tango assay measuring β-arrestin recruitment; assay type: cell-based; details: EC50 5-HT7A Tango, 95% CI in brackets; * = ambiguous
C57BL/6J mice [4] = details: cited from earlier work
[5] = s.c., identical testing conditions

5-HT1B, sequence (P28222 whole entry): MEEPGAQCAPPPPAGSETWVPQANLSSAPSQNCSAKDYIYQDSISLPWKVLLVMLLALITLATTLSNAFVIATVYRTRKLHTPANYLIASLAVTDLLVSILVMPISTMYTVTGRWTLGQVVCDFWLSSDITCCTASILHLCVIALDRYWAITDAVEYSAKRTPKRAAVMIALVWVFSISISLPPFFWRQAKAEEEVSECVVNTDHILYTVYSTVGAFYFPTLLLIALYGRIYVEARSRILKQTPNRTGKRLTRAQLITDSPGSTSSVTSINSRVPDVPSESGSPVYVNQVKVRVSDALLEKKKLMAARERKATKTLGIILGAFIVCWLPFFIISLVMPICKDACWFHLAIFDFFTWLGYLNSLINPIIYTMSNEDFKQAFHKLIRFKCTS
5-HT2B receptor, sequence (P41595 whole entry): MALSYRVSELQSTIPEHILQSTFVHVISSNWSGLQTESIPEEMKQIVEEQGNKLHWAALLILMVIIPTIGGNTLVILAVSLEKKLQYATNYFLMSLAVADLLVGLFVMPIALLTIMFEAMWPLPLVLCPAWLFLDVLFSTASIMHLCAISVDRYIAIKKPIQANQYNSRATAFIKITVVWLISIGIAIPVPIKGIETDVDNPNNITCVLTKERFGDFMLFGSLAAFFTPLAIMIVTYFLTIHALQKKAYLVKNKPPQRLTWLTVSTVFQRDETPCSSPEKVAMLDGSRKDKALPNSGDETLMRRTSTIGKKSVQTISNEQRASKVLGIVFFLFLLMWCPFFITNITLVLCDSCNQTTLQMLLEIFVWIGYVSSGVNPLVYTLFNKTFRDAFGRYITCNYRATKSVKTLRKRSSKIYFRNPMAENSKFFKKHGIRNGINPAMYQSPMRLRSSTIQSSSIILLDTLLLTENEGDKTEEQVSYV
5-HT2A receptor, sequence (P28223 whole entry): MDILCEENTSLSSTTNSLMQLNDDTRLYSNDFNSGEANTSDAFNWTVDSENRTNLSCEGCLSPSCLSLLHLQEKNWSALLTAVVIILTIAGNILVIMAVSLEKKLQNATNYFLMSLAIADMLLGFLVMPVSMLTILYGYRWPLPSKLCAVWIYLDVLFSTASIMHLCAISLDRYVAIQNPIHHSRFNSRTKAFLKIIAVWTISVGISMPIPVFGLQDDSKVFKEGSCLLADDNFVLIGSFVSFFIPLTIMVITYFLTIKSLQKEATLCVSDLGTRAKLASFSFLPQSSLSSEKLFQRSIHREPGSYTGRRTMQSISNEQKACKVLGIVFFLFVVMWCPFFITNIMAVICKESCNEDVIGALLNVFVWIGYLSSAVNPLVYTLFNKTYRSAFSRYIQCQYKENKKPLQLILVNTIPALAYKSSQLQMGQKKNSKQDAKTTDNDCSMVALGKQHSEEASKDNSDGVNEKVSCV
5-HT7A, sequence (P34969 1-445 isoform P34969-2): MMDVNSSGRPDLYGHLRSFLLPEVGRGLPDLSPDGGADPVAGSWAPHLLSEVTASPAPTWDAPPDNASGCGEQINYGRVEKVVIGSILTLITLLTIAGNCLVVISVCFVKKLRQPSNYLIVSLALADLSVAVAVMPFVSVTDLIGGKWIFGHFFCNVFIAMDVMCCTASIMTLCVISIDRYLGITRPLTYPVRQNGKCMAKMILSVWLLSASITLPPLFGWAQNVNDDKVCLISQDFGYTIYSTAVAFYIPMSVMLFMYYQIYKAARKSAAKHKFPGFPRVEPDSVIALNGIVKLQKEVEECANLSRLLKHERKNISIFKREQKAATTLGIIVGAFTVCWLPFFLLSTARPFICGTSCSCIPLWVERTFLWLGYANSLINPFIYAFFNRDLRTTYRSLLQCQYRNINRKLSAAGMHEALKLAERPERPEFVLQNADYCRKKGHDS
H1, sequence (P35367 whole entry): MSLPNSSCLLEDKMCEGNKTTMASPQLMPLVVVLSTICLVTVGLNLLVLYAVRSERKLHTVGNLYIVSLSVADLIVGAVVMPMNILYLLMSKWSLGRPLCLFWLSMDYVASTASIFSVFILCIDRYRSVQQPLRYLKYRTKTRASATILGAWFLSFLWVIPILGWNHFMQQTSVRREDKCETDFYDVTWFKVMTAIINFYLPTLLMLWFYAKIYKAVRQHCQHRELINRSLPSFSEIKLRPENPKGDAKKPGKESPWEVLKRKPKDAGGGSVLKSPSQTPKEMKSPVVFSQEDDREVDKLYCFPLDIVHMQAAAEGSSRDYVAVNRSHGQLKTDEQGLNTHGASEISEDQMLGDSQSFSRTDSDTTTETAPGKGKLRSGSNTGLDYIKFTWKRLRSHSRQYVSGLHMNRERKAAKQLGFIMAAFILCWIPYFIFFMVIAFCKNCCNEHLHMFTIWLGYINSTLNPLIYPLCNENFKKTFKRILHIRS

SMILES	time of peak HTR effects (C57BL/6J mice [1]) [min]	Emax(HTR events/30 min) (C57BL/6J mice [1])	effect on locomotor activity (in words) (C57BL/6J mice [2])	5-HT2C functional activity (in words) (5-HT2C receptor)	HTR activity (in words) (C57BL/6J mice [1])	also measured
C=CCNCCc1c[nH]c2cccc(O)c12.C=CCNCCc1c[nH]c2cccc(O)c12.O=C(O)/C=C/C(=O)O [4-HO-NALT, 3-(2-(Allylamino)ethyl)-1H-indol-4-ol Hemifumarate]	5 to 15	77 HTR events/30 min and 76.6 HTR events/30 min				Ki (H1): 467 nM; Emax (% 5-HT) 5-HT2B calcium flux (5-HT2B receptor): 88 % 5-HT
O=C(O)/C=C/C(=O)O.Oc1cccc2[nH]cc(CCNCc3ccccc3)c12 [4-HO-NBnT, 3-(2-(Benzylamino)ethyl)-1H-indol-4-ol Fumarate]	5 to 15	26.1 HTR events/30 min	reduced the total locomotor activity			Emax (5-HT2A receptor): 70%; Emax (% 5-HT) 5-HT2B calcium flux (5-HT2B receptor): 11 % 5-HT; decrease in HTR potency relative to psilocin (C57BL/6J mice [1]; mg/kg basis): 10 fold
CCNCCc1c[nH]c2cccc(O)c12.CCNCCc1c[nH]c2cccc(O)c12.O=C(O)CCC(=O)O [4-HO-NET, 3-(2-(Ethylamino)ethyl)-1H-indol-4-ol Hemisuccinate]	15 to 25	39.8 HTR events/30 min	reduced the total locomotor activity			delay of maximum HTR occurrence compared to 4-HO-NALT (C57BL/6J mice [1]; at equivalent doses): 10 min
CCCNCCc1c[nH]c2cccc(O)c12.CCCNCCc1c[nH]c2cccc(O)c12.O=C(O)/C=C/C(=O)O [4-HO-NPT, 3-(2-(Propylamino)ethyl)-1H-indol-4-ol Hemifumarate]	5 to 15	52 HTR events/30 min and 52.1 HTR events/30 min	reduced the total locomotor activity			ED50(mg/kg s.c.) for HTR (C57BL/6J mice [1]): 2.9 mg/kg
O=C(O)/C=C/C(=O)O.Oc1cccc2[nH]cc(CCNC3CCCCC3)c12 [4-HO-NcHT, 3-(2-(Cyclohexylamino)ethyl)-1H-indol-4-ol Fumarate]				inactive	inactive	5-HT1B agonist activity Tango (in words) (5-HT1B): inactive
CC(C)NCCc1c[nH]c2cccc(O)c12.O=C(O)/C=C/C(=O)O [4-HO-NiPT, 3-(2-(Isopropylamino)ethyl)-1H-indol-4-ol Fumarate]	15 to 25	27 HTR events/30 min and 27.5 HTR events/30 min		weak partial agonists		hypothermia Emax (C57BL/6J mice [3]): −1.7 °C; ED50(mg/kg s.c.) for HTR (C57BL/6J mice [1]): 3.3 mg/kg
CCCCNCCc1c[nH]c2cccc(O)c12.O=C(O)/C=C/C(=O)O [4-HO-NnBT, 3-(2-(Butylamino)ethyl)-1H-indol-4-ol Fumarate]			reduced the total locomotor activity	weak partial agonists	inactive	EC50 (5-HT7A): 1000 nM
CC(C)(C)NCCc1c[nH]c2cccc(O)c12.CC(C)(C)NCCc1c[nH]c2cccc(O)c12.O=C(O)/C=C/C(=O)O [4-HO-NtBT, 3-(2-(tert-Butylamino)ethyl)-1H-indol-4-ol Hemifumarate]				inactive	inactive	5-HT1B agonist activity Tango (in words) (5-HT1B): inactive
CNCCc1c[nH]c2cccc(O)c12 [norpsilocin, 4-hydroxy-N-methyltryptamine]						ED50(mg/kg s.c.) for HTR (C57BL/6J mice [4]; [5]): >30 mg/kg; HTR activity (in words) (C57BL/6J mice [4]; same assay setup): failed to induce psychedelic-like HTR activity
CN(C)CCc1c[nH]c2cccc(O)c12 [psilocin, 4-hydroxy-N,N-dimethyltryptamine]						reported HTR ED50 potency (C57BL/6J mice [4]): 0.11 to 0.17 mg/kg; ED50(mg/kg s.c.) for HTR (C57BL/6J mice [4]; [5]): 0.11 mg/kg; Emax(HTR events/30 min) (C57BL/6J mice [4]; [5]): 23 HTR events/30 min
